Laboratory results published in paper PMC4228444 (BMC Complementary and Alternative Medicine, 2013).
≈ marks a conversion by molar mass, not a printed value. Where “and” joins values, the source holds several entries; their conditions need not be identical. Identical values can stand only once. Numbered stars: 1 amine (or outer) side, 2 acyl side, 3 side chain; on linkers, the order of the positions; unused ones are H or OH. Bridge positions count the residues as written; N and C are the ends. Square brackets hold non-standard residues; d marks the D form. Peptide text beside a SMILES is read from it. I, II: the chains in the order shown. Actinocin(9to1) = Cc1c2oc3c(C)ccc(C(=O)[*:1])c3nc-2c(C(=O)[*:2])c(N)c1=O; NMeV = CN[C@H](C(=O)O)C(C)C; Sar = CNCC(=O)O

Assays:
[1] = isolated from Anacardium occidentale; cited from earlier work
[2] = tested on: Propionibacterium acnes (ATCC 11827); assay: Antibacterial activity, broth microdilution MIC (INT colour change); type: cell-based; conditions: P. acnes, 72 h anaerobic; for MIC: Cutibacterium acnes, ATCC11827, 72 h
Description: The ethanol extract and compounds were tested against P. acnes by determining the minimum inhibitory concentration (MIC) values obtained by a microdilution method as previously described with few modifications. Briefly, the bacteria was cultured from a Kwik-Stick on nutrient agar and incubated at 37°C for 72 h under anaerobic conditions before the assay. The 72 h culture of the bacteria was dissolved in nutrient broth and the suspension was adjusted to 0.5 McFarland standard turbidity. […] In a sterile 96-well plate, 100 μl of samples from the stock solution consisting of the plant extract/isolated compounds (2 mg/ml in 10% dimethyl sulphoxide (DMSO)) and the positive control tetracycline (0.2 mg/ml) were diluted with broth. Twofold serial dilutions were made in broth over a range to give concentrations of 500–3.9 μg/ml and 50–0.3 and μg/ml for the plant extract/ isolated compounds and positive control tetracycline, respectively. The bacterial suspension (100 μl) was then added to the wells. The wells with 2.5% DMSO and bacterial suspension without samples served as the solvent and negative controls, respectively. The plates were incubated at 37°C for 72 h in an anaerobic environment.

TNF α = TNF α release from U937 cells stimulated with heat-killed P. acnes (ELISA); type: cell-based, human; conditions: for Inhibitory ratio (%) TNF α: 18 h; for Suppression of TNF α release (range stated jointly for IL 8 and TNF α): abstract summary
Description: (§1) Briefly, the log phase culture of P. acnes was harvested, washed three times with phosphate buffer saline (PBS), and incubated at 80°C for 30 min to kill the bacteria. The heat-killed bacteria were stored at 4°C until use. […] Pentoxifylline was used as a control. […] Cytokine standards were serially diluted to facilitate the construction of calibration curves necessary for determining protein concentration after treatment with test samples. The ratio (%) of inhibition of the cytokine release was calculated using the following equation: […] Where T represents the concentration of the cytokine in the culture supernatant with the test sample, and C represents the concentration of cytokine in the culture supernatant with the solvent.

DPPH antioxidant assay = type: biochemical; conditions: for Antioxidant IC50 / IC50: DPPH; for Antioxidant IC50: 550 nm; for IC50: value in brackets; for Antioxidant Mg Vit C equivalents/g dry weight: IC50 vit C/IC50 sample × 1000
Description: Antioxidant activity of the ethanol extract of S. jambos and compounds was investigated using 1,2-diphenyl-1-picrylhydrazyl (DPPH) antioxidant assay. Following the procedures as described by DuToit et al. for each sample, a dilution series (8 dilutions) was prepared in a 96 well plate by adding distilled water as a dilution medium. Final concentration of the samples ranged from 100 to 0.7 μg/ml. Each concentration was tested in triplicate. Vitamin C was used as a positive control. […] The radical scavenging activity was measured in terms of the amount of antioxidants necessary to decrease the initial DPPH absorbance by 50% (IC50). The IC50 value of each sample was determined graphically by plotting the absorbance of DPPH as a function of the sample concentration in μg/ml. The IC50 is the amount of antioxidant necessary to decrease the initial DPPH absorbance by 50%. The results are expressed as the mg vitamin C equivalents/g dry weight and calculated as follows: […]

[3] = In vitro cytotoxicity assay (XTT), B16-F10; conditions: mouse
Description: (§2) The mouse melanocytes (B16-F10) cells were cultured in a complete Minimum Essential Eagle’s Medium (MEM) whereas the human U937 cells were cultured in Roswell Park Memorial Institute (RPMI) containing 10% fetal bovine serum (FBS) and 1% gentamycin. B16-F10 (10^5 cells per well) and U937 (10^6 cells per well) were seeded into a 96-well plate. After an overnight incubation at 37°C in 5% CO2 and a humidified atmosphere, the extract, compounds and the positive control (actinomycin D) were added to the cells. […] The highest concentration of positive control (0.05 μg/ml) was serially diluted to eight consecutive wells. The plate was then incubated at 37°C in 5% CO2, and a humidified atmosphere after which the toxic effects of the extracts were assayed using the XTT (sodium 3’-[1-(phenyl amino-carbonyl)-3,4-tetrazolium]-bis-[4-methoxy-6-nitrobenzene sulfonic acid hydrate) cytotoxicity assay. […] The optical densities of the wells were measured at 450 nm (690 nm reference wavelength) using BIOTEK Power-wave XS multi well reader (A.D.P., Weltevreden Park, South Africa). By referring to the control (medium with DMSO), the cell survival rate was assessed.

[4] = In vitro cytotoxicity assay (XTT), U937; conditions: human
Description: as §2

IL 8 = IL 8 release from U937 cells stimulated with heat-killed P. acnes (ELISA); type: cell-based, human; conditions: for Inhibitory ratio (%) IL 8: 18 h; for Suppression of IL 8 release (range stated jointly for IL 8 and TNF α): abstract summary; for Inhibition of IL 8 in words: at the highest concentration tested
Description: as §1

[5] = tested on: vancomycin-resistant enterococci; parameters: method as in PMID 17541170; conditions: cited from earlier work
U937 human macrophage = assay: In vitro cytotoxicity assay (XTT), U937; conditions: U937 cells
Description: as §2

P. acnes [6] = tested on: P. acnes; parameters: method as in doi:10.1021/jf00030a036; conditions: cited from earlier work
P. acnes [7] = assay: Transmission electron microscopy of treated P. acnes; type: cell-based, Propionibacterium acnes; conditions: 50 μg/ml, 72 h
Description: The TEM procedures followed the protocol of a previous publication. Briefly, bacteria was concentrated by centrifugation at 10 000 rpm for 1 min. The pellet was resuspended in nutrient broth to a final OD550 nm of 1. […] The bacterial suspension (5 ml) was mixed with plant extract and pure compound to a final concentration of 300 and 100 μg/ml for plant extract and 50 μg/ml for pure compound. Tetracycline (50 μg/ml) and DMSO (2.5%) were used as positive and solvent control, respectively. The pathogen was treated for 72 h; the control group consisted of only bacterial suspension in nutrient broth. Treated and untreated P. acnes cultures were centrifuged and fixed in 2.5% glutraldehyde in phosphate buffer at room temperature for 1 h. Samples were washed with phosphate buffer and postfixed in both 1% osmium tetraoxide and uranyl acetate. The cells were dehydrated in ethanol and embedded in quetol resin. Thin sections were prepared with a microtome and micrographs were taken using a JEOL JEM-2100 F field emission electron microscope.

[8] = at the highest concentration tested

6-pentadecenylsalicylic acid
DPPH radical scavenging activity in words [1]: did not exhibit notable DPPH radical scavenging activity

O=C(O)c1cc(O)c(O)c(O)c1 [Gallic acid, gallic acid]
MIC ([2]; 37°C): > 500 µg/mL | Antibacterial MIC ([2]; 37°C): Na (not active at the highest concentration tested (500 μg/ml)) | Inhibition of TNF α in words (TNF α; [8]): suppressed TNF α drastically | Antioxidant IC50 (DPPH antioxidant assay): 0.8 µg/mL | IC50 (DPPH antioxidant assay): 4.8 µM | Antioxidant Mg Vit C equivalents/g dry weight (DPPH antioxidant assay): 2444.9 Mg Vit C equivalents/g dry weight | EC50 [3]: 2.2 µg/mL and 13.1 µM | EC50 [4]: 28.4 µg/mL and 169 µM

CC(=O)CCCCn1c(=O)c2c(ncn2C)n(C)c1=O [Pentoxifylline, reference compound]
Inhibition of TNF α in words (TNF α; at 100 and 50 μg/ml): Very high inhibition | Inhibitory ratio (%) TNF α (TNF α; final concentration 10 μg/ml): 66.8% | Inhibitory ratio (%) TNF α (TNF α; final concentration 50 μg/ml): 99.7% | Inhibitory ratio (%) TNF α (TNF α; final concentration 100 μg/ml): 99.7% | Inhibitory ratio (%) IL 8 (IL 8; final concentration 10 μg/ml): -0.16% | Inhibitory ratio (%) IL 8 (IL 8; final concentration 50 μg/ml): -5.0% | Inhibitory ratio (%) IL 8 (IL 8; final concentration 100 μg/ml): -1.3% | Change in IL 8 concentration in words (IL 8; pentoxifylline control): no significant change

CC(C)=CCC/C(C)=C/CC/C(C)=C/CC/C=C(\C)CC/C=C(\C)CCC=C(C)C [Squalene, squalene]
MIC ([2]; 37°C): > 500 µg/mL | Antibacterial MIC ([2]; 37°C): Na (not active at the highest concentration tested (500 μg/ml)) | Antioxidant IC50 (DPPH antioxidant assay): >100 µg/mL | viability at 100 μg/ml ([3]; B16-F10 melanocyte cells): 100% | EC50 ([3]; B16-F10 mouse melanocyte cells): > 100 µg/mL | EC50 [4]: > 100 µg/mL | viability at 100 μg/ml [4]: 100%

C[C@H]1[C@H](C)CC[C@]2(C(=O)O)CC[C@]3(C)C(=CC[C@@H]4[C@@]5(C)CC[C@H](O)C(C)(C)[C@@H]5CC[C@]43C)[C@H]12 [Ursolic acid, ursolic acid]
MIC ([2]; 37°C): > 500 µg/mL | Antibacterial MIC ([2]; 37°C): Na (not active at the highest concentration tested (500 μg/ml)) | Suppression of TNF α release (range stated jointly for IL 8 and TNF α) (TNF α): 74 - 99% | Inhibition of TNF α in words (TNF α; [8]): significant inhibition | MIC [5]: 4 µg/mL (≈ 8.76 µM) | Suppression of IL 8 release (range stated jointly for IL 8 and TNF α) (IL 8): 74 - 99% | Inhibition of IL 8 in words (IL 8): significant inhibition | Toxicity in words (U937 human macrophage): moderately toxic | EC50 ([4]; U937 human macrophage cells): 38 µg/mL and 83.2 µM

Cc1c2oc3c(C)ccc(C(=O)N[C@@H]4C(=O)N[C@H](C(C)C)C(=O)N5CCC[C@H]5C(=O)N(C)CC(=O)N(C)[C@@H](C(C)C)C(=O)O[C@@H]4C)c3nc-2c(C(=O)N[C@@H]2C(=O)N[C@H](C(C)C)C(=O)N3CCC[C@H]3C(=O)N(C)CC(=O)N(C)[C@@H](C(C)C)C(=O)O[C@@H]2C)c(N)c1=O [actinomycin D, reference compound] (I: T[dV]P[Sar][NMeV] / II: T[dV]P[Sar][NMeV]; ester I:1-I:C, II:1-II:C; linker I:N-II:N via Actinocin(9to1))
EC50 [3]: 0.0045 µg/mL (≈ 0.00358 µM) | EC50 [4]: 0.0045 µg/mL (≈ 0.00358 µM)

CCCCCCCCCCCCCCCc1cccc(O)c1C(=O)O [pentadecyl salicylic acid]
MIC (P. acnes [6]): 0.78 µg/mL (≈ 2.24 µM)

CN(C)[C@@H]1C(O)=C(C(N)=O)C(=O)[C@@]2(O)C(O)=C3C(=O)c4c(O)cccc4[C@@](C)(O)[C@H]3C[C@@H]12 [tetracycline, reference compound]
MIC ([2]; 37°C): 3.1 µg/mL | MIC ([2]; value in brackets): 7 µM | TEM: cell injury to P. acnes (P. acnes [7]): significant damages to the cells of P. acnes

O=C1O[C@H]([C@@H](O)CO)C(O)=C1O [vitamin C, reference compound]
Antioxidant IC50 (DPPH antioxidant assay): 1.9 µg/mL | IC50 (DPPH antioxidant assay): 11.3 µM

myricitrin
Antibacterial MIC ([2]; 37°C): Na (not active at the highest concentration tested (500 μg/ml)) | Antibacterial MIC ([2]; 37°C, listed as myricitrin): > 500 µg/mL | Suppression of TNF α release (range stated jointly for IL 8 and TNF α) (TNF α): 74 - 99% | Inhibition of TNF α in words (TNF α; [8]): significant inhibition | Inhibitory ratio (%) TNF α (TNF α; final concentration 10 μg/ml): 32.8% | Inhibitory ratio (%) TNF α (TNF α; final concentration 50 μg/ml): 99.7% | Inhibitory ratio (%) TNF α (TNF α; final concentration 100 μg/ml): 99.7% | Antioxidant IC50 (DPPH antioxidant assay): 1.8 µg/mL | IC50 (DPPH antioxidant assay): 4 µM | Antioxidant Mg Vit C equivalents/g dry weight (DPPH antioxidant assay): 1081.0 Mg Vit C equivalents/g dry weight | Suppression of IL 8 release (range stated jointly for IL 8 and TNF α) (IL 8): 74 - 99% | Inhibition of IL 8 in words (IL 8): significant inhibition | Inhibitory ratio (%) IL 8 (IL 8; final concentration 10 μg/ml): 40.6% | Inhibitory ratio (%) IL 8 (IL 8; final concentration 50 μg/ml): 94.3% | Inhibitory ratio (%) IL 8 (IL 8; final concentration 100 μg/ml): 99.6%

pentadecadienyl salicylic acid
MIC (P. acnes [6]): 0.78 µg/mL

pentadecatrienyl salicylic acid
MIC (P. acnes [6]): 0.78 µg/mL

pentadecenyl salicylic acid
MIC (P. acnes [6]): 0.78 µg/mL
